Laboratory results: ChEMBL document CHEMBL1201862, “PubChem BioAssay data set” (2004)
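Exposure lasted 48 hours, with cells grown in 96-well plates and compounds tested at five concentrations. GI50 marks 50% less growth.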 Calls of active or inactive are those of the source. No stated cut-off is given here; in the data, active = GI50 up to about 1.1 µM and inactive = higher.

What was measured:
Experiment in all cases: NCI tumour cell line growth inhibition, 48 h
[1] = system: NCI-H460
[2] = system: UACC-257
[3] = system: HT-29
[4] = system: A549
[5] = system: SF-539
[6] = system: SF-268
[7] = system: UO-31
[8] = system: RPMI-8226
[9] = system: RXF 393
[10] = system: NCI-H522
[11] = system: EKVX
[12] = system: COLO 205
[13] = system: OVCAR-3
[14] = system: SK-MEL-28
[15] = system: SN12C
[16] = system: OVCAR-4
[17] = system: ACHN
[18] = system: K562
[19] = system: A498
[20] = system: HOP-62

Structure (SMILES) | GI50 [1] | GI50 [2] | GI50 [3] | GI50 [4] | GI50 [5] | GI50 [6] | GI50 [7] | GI50 [8] | GI50 [9] | GI50 [10] | GI50 [11] | GI50 [12] | GI50 [13] | GI50 [14] | GI50 [15] | GI50 [16] | GI50 [17] | GI50 [18] | GI50 [19] | GI50 [20]
COc1cc2c(cc1O)CC[C@@H]1C2CC[C@@]2(C)C1CC[C@@H]2O (stereo not given in full) | 1.96 µM (inactive) | 11.2 µM (inactive) | 21 µM (inactive) | 4.48 µM (inactive) | 0.807 µM (active) | 3.43 µM (inactive) | 6.65 µM (inactive) | 0.57 µM (active) | 6.24 µM (inactive) | 0.482 µM (active) | 6.17 µM (inactive) | 36.7 µM (inactive) | 0.634 µM (active) | 3.7 µM (inactive) | 6.85 µM (inactive) | 29.6 µM (inactive) | 9.84 µM (inactive) | 0.312 µM (active) | 16.7 µM (inactive) | 2.28 µM (inactive)
O=C1C=C(Br)c2c(-c3ccccc3)oc3cccc1c23 | 37.8 µM (inactive) | > 100 µM (inactive) | > 63.4 µM (inactive) | > 81.5 µM (inactive) | 23.2 µM (inactive) | 20.2 µM (inactive) | > 61.2 µM (inactive) | > 39.3 µM (inactive) | 23.6 µM (inactive) | 31.6 µM (inactive) | 25.4 µM (inactive) | > 63.1 µM (inactive) | > 57.1 µM (inactive) | > 93.5 µM (inactive) | > 88.1 µM (inactive) | 7.5 µM (inactive) | 49 µM (inactive) | > 50.9 µM (inactive) | > 75.7 µM (inactive) | 34.4 µM (inactive)
COC(=O)C(=O)C(C(=O)OC)C(=O)C(=O)Nc1cc(Cl)c(Cl)cc1Cl (stereo not given) | > 100 µM (inactive) | > 100 µM (inactive) | 49.8 µM (inactive) | > 100 µM (inactive) | > 100 µM (inactive) | > 100 µM (inactive) | > 100 µM (inactive) | 24.9 µM (inactive) | > 100 µM (inactive) | > 100 µM (inactive) | > 100 µM (inactive) | 29.4 µM (inactive) | > 100 µM (inactive) | > 100 µM (inactive) | > 100 µM (inactive) | > 100 µM (inactive) | > 100 µM (inactive) | > 100 µM (inactive) | > 100 µM (inactive) | > 100 µM (inactive)
Cc1ccc(S(=O)(=O)NN=C2CCCCCCCCCCC2)cc1 | > 100 µM (inactive) | > 100 µM (inactive) | > 100 µM (inactive) | > 100 µM (inactive) | > 100 µM (inactive) | > 100 µM (inactive) | > 100 µM (inactive) | > 100 µM (inactive) | 58.1 µM (inactive) | > 100 µM (inactive) | > 100 µM (inactive) | > 100 µM (inactive) | > 100 µM (inactive) | > 100 µM (inactive) | > 100 µM (inactive) | > 100 µM (inactive) | > 100 µM (inactive) | > 100 µM (inactive) | > 100 µM (inactive) | > 100 µM (inactive)
O=C1/C(=C/c2ccccc2)CN(C(=O)C(Cl)(Cl)Cl)C/C1=C\c1ccccc1 | 2.08 µM (inactive) | 1.58 µM (inactive) | 1.23 µM (inactive) | 13.9 µM (inactive) | 3.12 µM (inactive) | 3.33 µM (inactive) | 2.59 µM (inactive) | 0.0348 µM (active) | 1.89 µM (inactive) | 2.13 µM (inactive) | 9.23 µM (inactive) | 2.25 µM (inactive) | 2.86 µM (inactive) | 1.73 µM (inactive) | 1.72 µM (inactive) | 1.73 µM (inactive) | 2.01 µM (inactive) | 0.43 µM (active) | 4.24 µM (inactive) | > 10 µM (inactive)
CNNC(=NS(=O)(=O)c1cc(C#N)c(NNC)cc1S)NNC | > 10 µM (inactive) | > 10 µM (inactive) | > 10 µM (inactive) | > 10 µM (inactive) | > 10 µM (inactive) | > 10 µM (inactive) | > 10 µM (inactive) | > 10 µM (inactive) | > 10 µM (inactive) | > 10 µM (inactive) | > 10 µM (inactive) | > 10 µM (inactive) | > 10 µM (inactive) | > 10 µM (inactive) | > 10 µM (inactive) | > 10 µM (inactive) | > 10 µM (inactive) | > 10 µM (inactive) | > 10 µM (inactive) | > 10 µM (inactive)
CC(=O)c1nccc2c1c(C)nc1ccccc12 | 32.8 µM (inactive) | > 100 µM (inactive) | 74.5 µM (inactive) | 65 µM (inactive) | > 100 µM (inactive) | 64.3 µM (inactive) | 55.7 µM (inactive) | 16.4 µM (inactive) | 38.5 µM (inactive) | 47.5 µM (inactive) | 52.2 µM (inactive) | > 100 µM (inactive) | > 100 µM (inactive) | > 100 µM (inactive) | 32.7 µM (inactive) | > 100 µM (inactive) | > 100 µM (inactive) | 71.3 µM (inactive) | 48 µM (inactive) | 69.8 µM (inactive)
